The text below walks through data of ChEMBL document CHEMBL1201862, “PubChem BioAssay data set” (2004).

The target of data set [1] is T1, Zinc finger protein mex-5 (Caenorhabditis elegans, UniProt Q9XUB2).
T1 sequence (Q9XUB2 whole entry): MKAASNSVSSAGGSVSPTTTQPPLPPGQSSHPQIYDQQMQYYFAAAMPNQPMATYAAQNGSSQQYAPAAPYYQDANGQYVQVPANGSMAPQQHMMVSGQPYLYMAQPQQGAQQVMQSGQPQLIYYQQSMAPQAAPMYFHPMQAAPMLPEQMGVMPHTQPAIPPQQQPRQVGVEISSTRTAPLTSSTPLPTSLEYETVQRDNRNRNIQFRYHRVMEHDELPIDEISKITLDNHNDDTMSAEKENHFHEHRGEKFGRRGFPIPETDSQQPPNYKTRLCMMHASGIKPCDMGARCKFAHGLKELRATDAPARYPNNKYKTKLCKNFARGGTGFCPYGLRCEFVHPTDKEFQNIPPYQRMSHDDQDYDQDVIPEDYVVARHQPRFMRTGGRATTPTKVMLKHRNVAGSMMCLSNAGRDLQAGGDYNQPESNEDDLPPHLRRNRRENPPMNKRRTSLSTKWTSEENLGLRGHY
Kind of data set: potency of MEX-5 RNA-binding blockers – biochemical, C. elegans, fluorescence polarization, dose response (AID 1960).

The target of data set [2] is T2, RNA-binding protein pos-1 (Caenorhabditis elegans, UniProt G5EF15).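 Also: purified POS-1 fused to maltose binding protein made in E. coli; potency of compounds blocking POS-1 binding to fluorescent RNA.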
T2 sequence (G5EF15 whole entry): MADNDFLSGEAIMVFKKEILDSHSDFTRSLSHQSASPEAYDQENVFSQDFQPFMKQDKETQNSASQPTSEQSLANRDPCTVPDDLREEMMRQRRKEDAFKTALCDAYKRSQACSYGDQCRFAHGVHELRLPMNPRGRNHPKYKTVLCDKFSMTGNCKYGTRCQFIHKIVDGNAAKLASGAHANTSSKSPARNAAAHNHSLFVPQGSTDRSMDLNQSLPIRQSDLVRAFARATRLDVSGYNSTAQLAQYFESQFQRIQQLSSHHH
Nature of the data set: disruptors of C. elegans POS-1 RNA interaction – biochemical, fluorescence polarization, dose response (AID 1964). (Polarisation of emitted light reports the rotation of a fluorescent probe.)

Data set [3] has as its system BJ. Kind of data set: cells. Type of data set: functional, cell-based. The conditions noted are these: Homo sapiens.
Data set [4] can be described thus: DRD fibroblast viability loss – cell-based, non-viral oncogenic, luminescence, dose response (AID 1934). Type of data set: functional. The conditions noted are these: Homo sapiens.
Data set [5] relates to BJ. Nature of the data set: BJ-TERT-LT-ST fibroblast viability loss – cell-based, RAS-independent, luminescence, dose response (AID 1935).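 Also: BJ fibroblasts immortalized with TERT plus LT and ST oncogenes.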 Particulars: Homo sapiens. Type of data set: functional.
Data set [6] deals with BJ. Nature of the data set: BJ-TERT fibroblast viability loss – cell-based, RAS-independent, luminescence, dose response (AID 1933). In kind it is functional. The conditions noted are these: Homo sapiens.
For data set [7], the target named is T3, Polyadenylate-binding protein 1 (Homo sapiens, UniProt P11940). Nature of the data set: MLLE binding blockers, Cy5 peptide tracer – biochemical, fluorescence polarization, Cy5-PAM2 peptide, secondary, miRNA deadenylation inhibitor project, dose response (AID 602260). Type of data set: functional. Particulars: read-out: IC50_Mean.
Data set [8] deals with T3, Polyadenylate-binding protein 1. Kind of data set: MLLE domain peptide-binding blockers, IC50 – biochemical, fluorescence polarization, FITC-PAM2 peptide, dose response (AID 602259). In kind it is functional. Particulars: read-out: IC50_Mean.
For a further data set, the target named is Cytochrome P450 3A4 (Homo sapiens, UniProt P08684).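 Also: CYP3A4 tested as one member of a cytochrome P450 panel screen.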
The next data set concerns the target Cytochrome P450 2C19 (Homo sapiens, UniProt P33261). Kind of data set: Cytochrome panel assay with activity outcomes. Panel member name: p450-cyp2c19 Compounds with AC50 equal or less than 10 uM are considered active. In kind it is functional.
The next data set addresses Cytochrome P450 2C9 (Homo sapiens, UniProt P11712).
A short description of data set [9]: HIV-1 AD8 envelope cell-cell fusion blockers – cherry-pick, dose response (AID 652062).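 Also: luciferase signal from cell-cell fusion driven by HIV-1 clade B AD8 Env; potency is for inhibitors of fusion seen as a drop in luminescence.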 In kind it is functional, cell-based.
Data set [10] is described as follows: blockers of HIV-1 ZM109 envelope-driven cell-cell fusion – HeLa effector, CEM target cells, luciferase, cherry-pick, dose response (AID 652058).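 Also: luciferase signal from HIV-1 Env mediated cell-cell fusion of effector and target cells.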 Type of data set: functional, cell-based.
Data set [11] addresses T4, Heat shock factor protein 1 (Mus musculus, UniProt P38532).
T4 sequence (P38532 whole entry): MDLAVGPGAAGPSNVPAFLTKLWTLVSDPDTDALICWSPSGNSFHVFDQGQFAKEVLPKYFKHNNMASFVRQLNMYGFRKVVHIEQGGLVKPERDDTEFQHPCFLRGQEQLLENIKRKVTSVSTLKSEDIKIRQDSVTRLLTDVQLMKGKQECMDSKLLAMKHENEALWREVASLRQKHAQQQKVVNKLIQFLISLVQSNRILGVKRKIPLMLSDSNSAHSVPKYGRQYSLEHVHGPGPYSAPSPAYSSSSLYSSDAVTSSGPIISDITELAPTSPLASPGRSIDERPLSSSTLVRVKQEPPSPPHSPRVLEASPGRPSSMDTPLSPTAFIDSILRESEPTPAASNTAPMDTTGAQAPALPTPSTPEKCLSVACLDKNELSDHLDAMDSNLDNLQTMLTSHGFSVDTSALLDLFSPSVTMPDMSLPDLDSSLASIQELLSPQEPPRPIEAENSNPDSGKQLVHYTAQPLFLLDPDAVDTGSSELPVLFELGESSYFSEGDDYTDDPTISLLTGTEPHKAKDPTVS
Kind of data set: decrease of HSF1-responsive luciferase luminescence – cell-based, NIH3T3, dose retest, confirmation (AID 2382).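 Also: NIH3T3 fibroblasts with HSF1-driven luciferase reporter stressed by proteasome inhibitor MG132; luminescence from HSF1-driven luciferase expression after 8 hours of MG132 stress.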 Type of data set: functional.

The nature of data set [12]: alpha-synuclein stem-loop luciferase translation blockers – H4 neuroglioma cells, luminescence, confirmation (AID 1988). Type of data set: functional, cell-based.
Data set [13] in a line: Luminescence Cell-Based Dose Response HTS to Identify Inhibitors of 5'UTR Stem-Loop Driven Prion Protein mRNA Translation in H4 Neuroglioblastoma Cells. [Related pubchem assays: 1827 (Project Summary), 1813 (Primary HTS)]. Type of data set: functional.
Data set [14] can be described thus: luciferase reporter signal suppression in cells – H4 neuroglioma cells, luminescence, dose response (AID 1990). In kind it is functional, cell-based. (In general: In a reporter assay the amount or activity of a reporter protein is the signal.)
The nature of data set [15]: NIH-3T3 fibroblast cytotoxicity, dose response, cytotoxicity control, cell-based, fluorescence, Alamar Blue, secondary assay (AID 2327).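 Also: NIH-3T3 mouse fibroblasts cultured with fluconazole at 8 µg/mL.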 Type of data set: functional.

Activity calls are given as the source filed them.

T3 sequence (P11940 whole entry, the tested form may be a part): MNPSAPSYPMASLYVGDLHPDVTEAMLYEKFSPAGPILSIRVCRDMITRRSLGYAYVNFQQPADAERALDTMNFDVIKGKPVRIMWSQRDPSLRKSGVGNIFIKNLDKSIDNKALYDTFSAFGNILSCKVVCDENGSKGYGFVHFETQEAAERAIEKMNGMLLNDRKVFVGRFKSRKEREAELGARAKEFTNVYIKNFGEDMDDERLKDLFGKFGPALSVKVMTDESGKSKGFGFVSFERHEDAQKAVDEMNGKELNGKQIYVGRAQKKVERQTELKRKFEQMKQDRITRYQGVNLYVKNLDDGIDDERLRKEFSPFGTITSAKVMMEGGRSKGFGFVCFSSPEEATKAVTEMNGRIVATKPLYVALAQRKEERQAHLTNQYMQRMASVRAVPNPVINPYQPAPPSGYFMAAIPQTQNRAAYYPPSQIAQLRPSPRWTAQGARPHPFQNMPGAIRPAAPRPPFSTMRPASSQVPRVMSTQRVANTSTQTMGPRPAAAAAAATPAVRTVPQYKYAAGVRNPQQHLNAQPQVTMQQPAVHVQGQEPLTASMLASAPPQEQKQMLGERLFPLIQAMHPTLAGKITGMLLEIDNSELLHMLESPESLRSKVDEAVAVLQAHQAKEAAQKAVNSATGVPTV
Sequence of Cytochrome P450 3A4 (P08684 whole entry): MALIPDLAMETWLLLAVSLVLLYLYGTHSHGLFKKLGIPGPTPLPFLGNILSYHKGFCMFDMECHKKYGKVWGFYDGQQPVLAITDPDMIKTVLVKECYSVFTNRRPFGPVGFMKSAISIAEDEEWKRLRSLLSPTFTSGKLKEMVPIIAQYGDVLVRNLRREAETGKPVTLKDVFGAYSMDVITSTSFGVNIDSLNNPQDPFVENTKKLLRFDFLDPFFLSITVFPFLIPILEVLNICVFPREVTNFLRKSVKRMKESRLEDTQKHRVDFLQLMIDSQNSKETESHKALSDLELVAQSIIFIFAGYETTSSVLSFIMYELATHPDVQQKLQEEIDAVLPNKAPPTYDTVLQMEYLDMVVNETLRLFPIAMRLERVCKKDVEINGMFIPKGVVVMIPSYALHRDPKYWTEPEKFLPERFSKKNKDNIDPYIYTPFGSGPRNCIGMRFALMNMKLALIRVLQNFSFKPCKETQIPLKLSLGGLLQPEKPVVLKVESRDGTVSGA
Sequence of Cytochrome P450 2C9 (P11712 whole entry, the tested form may be a part): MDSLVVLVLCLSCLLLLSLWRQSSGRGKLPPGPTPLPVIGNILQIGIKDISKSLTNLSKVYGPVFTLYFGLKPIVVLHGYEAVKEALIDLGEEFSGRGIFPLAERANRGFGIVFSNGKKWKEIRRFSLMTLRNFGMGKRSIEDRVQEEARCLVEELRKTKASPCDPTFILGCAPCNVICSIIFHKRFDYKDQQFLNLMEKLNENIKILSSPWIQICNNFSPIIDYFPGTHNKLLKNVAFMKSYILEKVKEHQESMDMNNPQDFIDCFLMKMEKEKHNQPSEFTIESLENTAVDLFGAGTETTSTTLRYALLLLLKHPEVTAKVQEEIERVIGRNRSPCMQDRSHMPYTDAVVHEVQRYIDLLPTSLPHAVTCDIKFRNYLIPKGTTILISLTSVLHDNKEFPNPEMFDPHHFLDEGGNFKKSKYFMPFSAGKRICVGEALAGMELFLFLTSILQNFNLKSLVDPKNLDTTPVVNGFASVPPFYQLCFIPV
Sequence of Cytochrome P450 2C19 (P33261 whole entry): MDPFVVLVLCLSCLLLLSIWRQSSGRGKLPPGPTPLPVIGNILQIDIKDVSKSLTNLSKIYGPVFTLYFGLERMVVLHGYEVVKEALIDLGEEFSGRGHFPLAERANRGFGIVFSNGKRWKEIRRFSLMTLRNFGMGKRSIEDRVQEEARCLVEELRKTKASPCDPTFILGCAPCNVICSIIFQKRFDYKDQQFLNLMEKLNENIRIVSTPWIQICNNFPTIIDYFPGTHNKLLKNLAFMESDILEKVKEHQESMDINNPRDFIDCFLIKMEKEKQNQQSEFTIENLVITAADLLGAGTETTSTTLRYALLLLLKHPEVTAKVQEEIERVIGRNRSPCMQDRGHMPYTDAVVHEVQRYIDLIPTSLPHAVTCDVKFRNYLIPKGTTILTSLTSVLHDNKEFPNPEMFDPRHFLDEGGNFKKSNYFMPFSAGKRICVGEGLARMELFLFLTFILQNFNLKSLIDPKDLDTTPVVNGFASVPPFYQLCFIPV

Usually EC50 stands for the concentration at which the effect is half-maximal. For `CCC1(c2ccccc2)NC(=O)N(CC(=O)NCc2ccc(F)cc2)C1=O` (centres undefined), the EC50 in data set [1] and in data set [2] was > 300 µM (not active) each time.

In the case of `O=C(O)c1ccc2c(=O)n3c(nc2c1)/C(=C/c1ccc(C(F)(F)F)cc1)CC3`, the EC50 in the data set with BJ [3] was > 150 µM (not active); in data set [4] it was > 150 µM (not active); in the data set on BJ [5], > 150 µM (inconclusive); in the data set on BJ [6], > 150 µM (not active).

In the case of `COC(=O)c1c(N=C(S)Nc2cc(OC)c(Cl)cc2OC)sc2c1CCCCC2`, the IC50 in [7] and in data set [8] was > 66 µM (inactive) each time.

What is called AC50 is the midpoint of the concentration-response curve, whichever way the signal moves. For `Cc1nc(N=C(N)S)sc1C(=O)Nc1ccccc1`, the figures for the half-maximal activity concentration (AC50) at Cytochrome P450 3A4, at Cytochrome P450 2C19 and on Cytochrome P450 2C9 were 14.1 µM (inconclusive), “inconclusive” and 39.8 µM (inconclusive), respectively. The IC50 in data set [7] and in data set [8] was > 66 µM (inactive) throughout.

`C=CC[n+]1c(-c2ccc(OC)c(OC)c2)csc1NNC(=O)Nc1ccccc1`: the AC50 in data set [9] was 15.8 µM (active); in data set [10], 0.401 µM (active).

As for `NC(=O)CC(NC(=O)Cc1ccc(Cl)cc1)c1ccc(NC2CCCCCC2)c([N+](=O)[O-])c1` (centres undefined), the 50% effective concentration (EC50) in data set [1] is recorded as > 300 µM (not active); in data set [2], > 300 µM (not active); in data set [11], > 195 µM (not active).

For `COC(=O)c1cc(-c2ccccc2)sc1NC(=O)CN1C(=O)c2ccccc2C1=O`, the AC50 at Cytochrome P450 3A4 was 31.6 µM (inconclusive). The IC50 in data set [7] and in [8] was > 66 µM (inactive) throughout.

As to `Cc1ccc2nc(O)c(C(c3nnnn3CC3CCCO3)N3CCc4ccccc4C3)cc2c1` (centres undefined), the IC50 in data set [7] and in [8] was > 66 µM (inactive) throughout.

Turning to `CC1=C(C#N)C(=O)OC(C)(C)C1`, the figures for the EC50 in [1] and in [2] were 10.1 µM (active) and 10.8 µM (active), respectively.

On to `O=S(=O)(NCCCSc1ccccc1)c1ccccc1F`, for which the IC50 in data set [7] and in data set [8] was > 66 µM (inactive) throughout.

For the compound `C/C(=N\Nc1ccc([N+](=O)[O-])cc1[N+](=O)[O-])c1cc2c(ccc3ccccc32)oc1=O`, the EC50 in data set [1] and in data set [2] was > 300 µM (not active) throughout.

As to `O=C(c1ccco1)N1CCN(c2ncnc3c(-c4ccc(Cl)cc4)nsc23)CC1`, the EC50 in data set [1] and in data set [2] was > 300 µM (not active) in each case.

Turning to `CCOc1ccccc1C(=O)NCC(=O)NNC(=O)CN(C)S(=O)(=O)c1ccc(Cl)cc1`, the AC50 in data set [10] was 23.6 µM (active).

For the compound `CCOc1ccc(N/C(=C(/C(Cl)=C(Cl)Cl)[N+](=O)[O-])n2cncn2)cc1`, the EC50 is 45.4 µM (active) in data set [1] and 46.9 µM (active) in data set [2].

With `CCN(CC)CCCCNc1ncc2cc(-c3cc(OC)cc(OC)c3)c(NC(=O)NC(C)(C)C)nc2n1` [PD-173074], the concentration for a half-maximal effect (EC50) is 9.24 µM (active) in data set [12], 12.8 µM (active) in data set [13] and > 120 µM (not active) in data set [14].

For `O=C(/N=C1\SC2CS(=O)(=O)CC2N1c1ccccc1)C1CC1` (centres undefined), the EC50 was > 300 µM (inconclusive) in [1] and > 300 µM (not active) in [2].

With `COc1ccc(C(=O)NC(=S)N2CCCc3ccccc32)cc1OC`, the IC50 in data set [7] and in data set [8] was > 66 µM (inactive) each time.

With `CCCCC1=CC2=CC(=O)C(C)(OC(=O)CCC(=O)OC)C(=O)C2=CO1` (centres undefined), the EC50 was 26.6 µM (active) in data set [1] and 30 µM (active) in data set [2].

For `CCCN1C(=O)/C(=C/c2ccc(C)o2)S/C1=N/c1ccc(OC)cc1`, the EC50 in data set [1] is 103 µM (inconclusive); in [2], 44.6 µM (active).

On to `O=C(NC(=S)Nc1ccc(CN2CCOCC2)cc1)c1ccc([N+](=O)[O-])cc1`, for which the IC50 in [7] and in data set [8] was > 66 µM (inactive) throughout.

As to `O=C1/C(=C\c2ccccc2)C2OCC=C3CN4CCC56c7ccccc7N1C5C2C3CC46` (centres undefined), the EC50 is > 150 µM (not active) with BJ [3], 15.3 µM (active) in [4], > 75 µM (inconclusive) in the data set with BJ [5] and 19.4 µM (active) in the data set on BJ [6].

Take `O=c1c2ccccc2c(-c2ccc(O)cc2)nn1-c1cccc(C(F)(F)F)c1`: the results for the EC50 in data set [12], in [13] and in data set [14] were > 120 µM (not active), > 120 µM (not active) and 16.6 µM (active), respectively.

Regarding `Cc1cc(O)nc(SCC(=O)Nc2ccc(C(=O)O)cc2)n1`, the IC50 in data set [7] and in data set [8] was > 66 µM (inactive) in each case.

As for `COc1cccc(C(=O)NCc2ccc3[nH]c(C)cc3c2)c1`, the IC50 in data set [7] and in data set [8] was > 66 µM (inactive) each time.

For the compound `C=C(C)c1cccc(C(C)(C)NC(=O)Nc2ccc(C(N)=O)cc2)c1`, the EC50 in data set [15] was > 150 µM (inactive).
